Reference: patent publication US8420311B2, “Method to block the infection by flaviviruses, molecules and uses” (Centro de Ingenieria Genetica y Biotecnologia, priority 2006, dated 2013)
Where a SMILES comes first, the peptide text is derived from it. Bridges are numbered along the chain shown (N, C = ends). Where no end group is shown, it is not given here.

B1: A2M: human Alfa 2-macroglobulin purified from human plasma, Seq. ID. 2 (protein, listed as Homo sapiens)
chain: MGKNKLLHPSLVLLLLVLLPTDASVSGKPQYMVLVPSLLHTETTEKGCVLLSYLNETVTVSASLESVRGNRSLFTDLEAENDVLHCVAFAVPKSSSNEEVMFLTVQVKGPTQEFKKRTTVMVKNEDSLVFVQTDKSIYKPGQTVKFRVVSMDENFHPLNELIPLVYIQDPKGNRIAQWQSFQLEGGLKQFSFPLSSEPFQGSYKVVVQKKSGGRTEHPFTVEEFVLPKFEVQVTVPKIITILEEEMNVSVCGLYTYGKPVPGHVTVSICRKYSDASDCHGEDSQAFCEKFSGQLNSHGCFYQQVKTKVFQLKRKEYEMKLHTEAQIQEEGTVVELTGRQSSEITRTITKLSFVKVDSHFRQGIPFFGQVRLVDGKGVPIPNKVIFIRGNEANYYSNATTDEHGLVQFSINTTNVMGTSLTVRVNYKDRSPCYGYQWVSEEHEEAHHTAYLVFSPSKSFVHLEPMSHELPCGHTQTVQAHYILNGGTLLGLKKLSFYYLIMAKGGIVRTGTHGLLVKQEDMKGHFSISIPVKSDIAPVARLLIYAVLPTGDVIGDSAKYDVENCLANKVDLSFSPSQSLPASHAHLRVTAAPQSVCALRAVDQSVLLMKPDAELSASSVYNLLPEKDLTGFPGPLNDQDDEDCINRHNVYINGITYTPVSSTNEKDMYSFLEDMGLKAFTNSKIRKPKMCPQLQQYEMHGPEGLRVGFYESDVMGRGHARLVHVEEPHTETVRKYFPETWIWDLVVVNSAGVAEVGVTVPDTITEWKAGAFCLSEDAGLGISSTASLRAFQPFFVELTMPYSVIRGEAFTLKATVLNYLPKCIRVSVQLEASPAFLAVPVEKEQAPHCICANGRQTVSWAVTPKSLGNVNFTVSAEALESQELCGTEVPSVPEHGRKDTVIKPLLVEPEGLEKETTFNSLLCPSGGEVSEELSLKLPPNVVEESARASVSVLGDILGSAMQNTQNLLQMPYGCGEQNMVLFAPNIYVLDYLNETQQLTPEVKSKAIGYLNTGYQRQLNYKHYDGSYSTFGERYGRNQGNTWLTAFVLKTFAQARAYIFIDEAHITQALIWLSQRQKDNGCFRSSGSLLNNAIKGGVEDEVTLSAYITIALLEIPLTVTHPVVRNALFCLESAWKTAQEGDHGSHVYTKALLAYAFALAGNQDKRKEVLKSLNEEAVKKDNSVHWERPQKPKAPVGHFYEPQAPSAEVEMTSYVLLAYLTAQPAPTSEDLTSATNIVKWITKQQNAQGGFSSTQDTVVALHALSKYGAATFTRTGKAAQVTIQSSGTFSSKFQVDNNNRLLLQQVSLPELPGEYSMKVTGEGCVYLQTSLKYNILPEKEEFPFALGVQTLPQTCDEPKAHTSFQISLSVSYTGSRSASNMAIVDVKMVSGFIPLKPTVKMLERSNHVSRTEVSSNHVLIYLDKVSNQTLSLFFTVLQDVPVRDLKPAIVKVYDYYETDEFAIAEYNAPCSKDLGNA

Tests used:
DV3 = format: cell-based, dengue virus; conditions: for degree of reduction of the number of viral plaques, DV3: peptides 0.1 mg/ml, Vero cells
Source text: (§1) DIII has one of the most variable regions of the exposed surface of protein E. In fact, one of the antigenic characteristics of this domain is that the antibodies obtained against this region are predominantly serotype-specific (Roehrig J T, Bolin R A, Kelly R G (1998) Monoclonal antibody mapping of the envelope glycoprotein of the dengue 2 virus, Jamaica Virology 246:317-28). However, during the inhibition assay with different DV serotypes, the peptides display a wide-spectrum inhibitory activity, efficiently inhibiting the infection of strains of the homologous, as well as of the heterologous serotypes (table 3). It is important to notice that at the assayed concentration (0.1 mg/ml) all the peptides in all the conditions, with the exception of peptide HIII4CL for DV3, produced higher than 50% inhibition levels.

DV4 = format: cell-based, dengue virus; conditions: peptides 0.1 mg/ml; Vero cells
Source text: as §1

DV2 = format: cell-based, dengue virus; conditions: peptides 0.1 mg/ml; Vero cells
Protocol: (§2) FIG. 17. Inhibition of the infection of Vero cells with DV1 and DV2. (A) Six-well plates with a monolayer at approximately 90% confluence were incubated for 30 min. at 37° C. with dilutions of the peptides in MEM medium. A dilution of either DV1 strain West Pac 74 or DV2 strain S16803 was then added, calculated so as to obtain an average of 100 lytic plaques per well, and the plates were incubated for 30 min. at 37° C. with the virus/peptide mixture. After the incubation the cells were washed twice, received the addition of MEM medium supplemented with non-essential amino acids, 1% fetal calf serum, 1% CMC, and finally were incubated for 5 days at 37° C. under a CO2 atmosphere. (B) Inhibitory effect of the peptides at 100 μMol/L. NRpep: Non-related peptide. Data on the sequence of the peptides 3H5pept (SEQ ID. 27), pepDIII-1 (SEQ ID. 28), HIII2CL (SEQ ID. 5) and HIII3CL (SEQ ID. 7), as well as on the region they span on DIII from DV, can be obtained from FIG. 11. The calculation of the inhibition percentages is described in Materials and Methods. (C) Inhibition of DV2 infection by using varying peptide concentrations. The viral plaques were visualized by staining with Naphtol Blue Black. Cell control: Untreated cells. Virus control: Cells incubated with the virus, but without peptide.
as §1

DV1 = format: cell-based, dengue virus; conditions: peptides 0.1 mg/ml; Vero cells
Protocol: as §2, §1

[1] = target: T1, DIIIE2J (DIII from protein E of DV2) (Dengue virus type 2, UniProt P07564); assay: Direct binding between DIIIE2J and A2M measured by Biacore; parameters: species or system DV2 strain Jamaica 1409; conditions: A2M 0.3 to 3 μMol/L
T1 construct: made in house; host or cells: Escherichia coli BL21(DE3)
T1 sequence (P07564 568-687, looked up, natural form): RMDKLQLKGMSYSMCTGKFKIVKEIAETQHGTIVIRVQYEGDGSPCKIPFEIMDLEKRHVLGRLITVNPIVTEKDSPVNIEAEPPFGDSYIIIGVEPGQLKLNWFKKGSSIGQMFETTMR
Protocol: FIG. 6. Direct binding between DIIIE2J and A2M, measured by Biacore. Response curves obtained during and after the injection of (B) Monoclonal antibodies against DV serotype 2 (3H5) and against all FV (4G2); (C) Polyclonal mouse antibody preparations obtained by immunization with DV1 and DV2, including pre-immune sera and (D) A2M dilutions, at concentrations from 0.3 μMol/L to 3 μMol/L. The run was performed on PBS pH 7.4 at 25° C. The different A2M dilutions were loaded at a flow of 5 μL/min for 20 min. The response is represented in resonance units (RU) corrected for unspecific binding using the response from the channel without immobilized protein (less than 5% of the specific signal).
A cm5 chip (Biacore, Sweden) was used for the covalent immobilization of the DIIIE2J and LRP1 proteins. The immobilization was carried out at 25° C., with a flow of 5 μL/min and using HBS (Biacore, Sweden) as running buffer. The surface of the chip was activated by loading 35 μL of 0.2 Mol/L […] (EDC) and 0.05 Mol/L N-hydroxysuccinimide (NHS). Afterwards the proteins, dissolved in 10 mM sodium acetate buffer pH 4.5, were loaded into the system. At the end of the immobilization, 35 μL of 1 M ethanolamine pH 8 were loaded into the system in order to block any remaining free activated groups. The channel to be used as a negative control in each case received only the activating injections with the EDC:NHS solution and the blocking with ethanolamine, employing the same flow and injection volume. The results were analyzed using the BIAevaluation ver. 4.1 software application package (Biacore, Sweden).
In order to estimate the strength of the interaction between DIIIE2J and human A2M, 1600 RU of DIIIE2J were covalently immobilized on a CM5 chip (channel 1, FIG. 6A) (Biacore, Sweden), following the procedure described in the Materials and Methods section. […]

| Molecule | degree of reduction of the number of viral plaques, DV3 (DV3) | degree of reduction of the number of viral plaques, DV4 (DV4) | degree of reduction of the number of viral plaques, DV2 (DV2) | degree of reduction of the number of viral plaques, DV1 (DV1) | inhibition level, DV3 (DV3; 0.1 mg/ml) | nature of the interaction between both proteins [1] | Kd ([1]; immobilized DIIIE2J, PBS pH 7.4 at 25° C., read-out: apparent Kd) |
| --- | --- | --- | --- | --- | --- | --- | --- |
| HDIII1CL: cyclic synthetic peptide based on the FG beta hairpin of DIII of protein E from DV1, SEQ ID. 6 (CSYIVVGAGEKALKLSWC-NH2; disulfide 1-18 (inferred)) | + (50% or higher decrease) | + (50% or higher decrease) | + (50% or higher decrease) | + (50% or higher decrease) | – | – | – |
| CC[C@H](C)[C@@H]1NC(=O)[C@H](Cc2ccc(O)cc2)NC(=O)[C@H](CO)NC(=O)[C@@H](N)CSSC[C@@H](C(N)=O)NC(=O)[C@H](Cc2c[nH]c3ccccc23)NC(=O)[C@H](Cc2c[nH]cn2)NC(=O)[C@H](CC(C)C)NC(=O)[C@H]([C@@H](C)O)NC(=O)[C@H](CC(C)C)NC(=O)[C@H](C)NC(=O)[C@H](CO)NC(=O)[C@H](CC(N)=O)NC(=O)CNC(=O)[C@H](C(C)C)NC(=O)CNC(=O)[C@H]([C@@H](C)CC)NC(=O)[C@H](C(C)C)NC1=O [HDIII4CL] (H-CSYIVIGVGNSALTLHWC-NH2; disulfide 1-18; N-terminus assumed) | +/− (10-50% decrease in the number of plaques) | + (50% or higher decrease) | + (50% or higher decrease) | + (50% or higher decrease) | ≤ 50% | – | – |
| B1 | – | – | – | – | – | saturable and reversible | ~100 nM |
